In this assay the target is Focal adhesion kinase 1 (Homo sapiens, UniProt Q05397).

pIC50: −log10 of the molar value.

Focal adhesion kinase 1, sequence (Q05397 whole entry): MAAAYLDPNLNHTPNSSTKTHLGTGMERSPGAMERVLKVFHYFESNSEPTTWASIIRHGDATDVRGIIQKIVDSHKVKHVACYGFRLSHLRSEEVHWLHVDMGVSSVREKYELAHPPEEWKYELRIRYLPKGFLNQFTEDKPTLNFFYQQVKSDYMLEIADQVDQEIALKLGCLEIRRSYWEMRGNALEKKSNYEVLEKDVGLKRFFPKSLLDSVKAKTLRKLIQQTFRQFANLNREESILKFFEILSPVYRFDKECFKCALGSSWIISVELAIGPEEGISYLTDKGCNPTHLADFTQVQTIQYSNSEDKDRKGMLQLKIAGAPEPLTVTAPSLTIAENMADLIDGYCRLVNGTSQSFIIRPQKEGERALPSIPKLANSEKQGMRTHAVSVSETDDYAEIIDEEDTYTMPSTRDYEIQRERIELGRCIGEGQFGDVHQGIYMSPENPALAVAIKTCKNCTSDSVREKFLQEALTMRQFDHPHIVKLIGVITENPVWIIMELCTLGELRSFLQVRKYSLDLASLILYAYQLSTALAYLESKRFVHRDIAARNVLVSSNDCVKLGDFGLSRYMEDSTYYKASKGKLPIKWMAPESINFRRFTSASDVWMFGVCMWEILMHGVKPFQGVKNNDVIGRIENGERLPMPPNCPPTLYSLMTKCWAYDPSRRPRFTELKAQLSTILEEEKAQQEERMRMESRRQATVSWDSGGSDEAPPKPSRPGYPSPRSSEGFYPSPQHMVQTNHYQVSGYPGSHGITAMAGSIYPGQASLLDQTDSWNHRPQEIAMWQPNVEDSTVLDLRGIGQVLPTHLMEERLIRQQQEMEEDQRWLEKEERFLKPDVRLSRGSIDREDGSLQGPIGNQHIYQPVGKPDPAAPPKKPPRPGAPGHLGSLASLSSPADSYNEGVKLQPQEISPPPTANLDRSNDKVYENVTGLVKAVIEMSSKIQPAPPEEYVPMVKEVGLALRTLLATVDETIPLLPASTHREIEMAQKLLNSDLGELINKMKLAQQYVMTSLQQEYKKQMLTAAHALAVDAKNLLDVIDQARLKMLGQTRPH

In turn, `Cc1nn(-c2cc(Cl)cc(CCC(N)=O)c2)c2cc(N[C@@H](C)c3ccccc3)ncc12` [3-[3-chloro-5-(3-methyl-6-{[(1S)-1-phenylethyl]amino}-1H-pyrazolo[4,3-c]pyridin-1-yl)phenyl]propanamide] showed a pIC50 of 5.13.
With `CC(=O)Nc1ccccc1-c1cc(Cl)cc(-n2nc(C)c3cnc(N[C@@H](C)c4ccccc4)cc32)c1` [N-{2-[3-chloro-5-(3-methyl-6-{[(1S)-1-phenylethyl]amino}-1H-pyrazolo[4,3-c]pyridin-1-yl)phenyl]phenyl}acetamide] the figure was 5.20.

The values are drawn from BindingDB's records for doi:10.1016/j.bmcl.2008.08.095 (Sunesis Pharmaceuticals, 2008).
